*1 amine or outer side, *2 acyl side, *3 side chain or, on linkers, in order; H or OH if unused. Where a SMILES comes first, the peptide text is derived from it. [ ]: non-standard residue; d: D form. The star is where a group is joined. ξ: configuration not given here. X4 = CO[C@H]1[C@H](O)[C@@H](Oc2ccc(NC(=S)*)cc2)O[C@@H](C)[C@H]1O; X1 = CO[C@H]1[C@@H](O)[C@@H](C)OC(Oc2ccc(NC(=S)*)cc2)[C@H]1O; X2 = CC[C@@]1(O*)C(=O)OCc2c1cc1n(c2=O)Cc2cc3ccccc3nc2-1; X3 = CO[C@H]1[C@@H](O)[C@@H](C)OC(Oc2ccc(N*)cc2)[C@H]1O; Ile(3ξ) = CCC(C)[C@H](N)C(=O)O; CO = O=C([*:1])[*:2]
Tests used:
[1] = system: hemopoietic stem cells (bone marrow cells); test: cells; type: cell-based, mice; conditions: murine bone marrow cells, recombinant murine GM-CSF, 7 days
Protocol: C. CSF-Induced Proliferation of Hemopoietic Stem Cells
Bone marrow cells are flushed out of the femur of mice. 105 cells are incubated in McCoy 5A medium (0.3% agar) together with recombinant murine GM-CSF (Genzyme; parent cell colony formation) and the substances (10^−4 to 100 μg/ml) at 37° C. and 7% CO2. 7 days later, the colonies ([…]) and clusters (17-50 cells) are counted.

[2] = system: subcutaneously growing melanoma xenograft model (MEXF 989); test: In-vivo inhibition of tumour growth using a nude mouse model; set-up: species or system athymic nude mice (NMRI nu/nu strain); conditions: for optimal T/C in % / lethality: MEXF 989 xenograft, nude mice, i.v. or i.p., day 1-3 and day 15-17; for lethality: dead/5 mice; for inhibition of the tumor growth (in words): subcutaneously growing melanoma xenograft MEXF 989, nude mice
Source text: B. In-Vivo Inhibition or Tumour Growth Using a Nude Mouse Model
In all in-vivo experiments for investigating the inhibition of tumour growth, athymic nude mice (NMRI nu/nu strain) were used. The tumour was developed by serial passage in nude mice. The human origin of the tumour was confirmed by isoenzymatic and immunohistochemical methods.
The tumour was implanted subcutaneously in both flanks of nu/nu nude mice 6 to 8 weeks old. The treatment was started, depending on the doubling time, as soon as the tumours had reached a diameter of 5-7 mm. The mice were assigned to the treatment group or the control group (5 mice per group having 8-10 assessable tumours) by randomization. The individual tumours of the control group all grew progressively.
The size of the tumours was measured in two dimensions by means of a slide gauge. The tumour volume, which correlated well with the cell count, was then used for all assessments. The volume was calculated according to the formula “length×breadth×breadth/2” ([a×b^2]/2, a and b represent two diameters arranged at right angles).
The values of the relative tumour volume (RTV) were calculated for each individual tumour by dividing the tumour size on day×with the tumour size on day 0 (at the time of randomization). The average values of the RTV were then used for the further assessment.
The inhibition of the increase of the tumour volume (tumour volume of the test group/control group, T/C, in percent) was the final measured value.
The compounds can be administered with a daily or an intermittent therapy schedule through a couple of days either by intraperitoneal, intravenious, oral or subcutaneous route.
The compounds are dissolved in water or in PEG400/water 2:1 and are administered intravenously or intraperitoneally from day 1-3 and day 15-17.

[3] = system: B16F10 mouse melanoma cell line; test: Growth inhibition test (MTT) for cytotoxic properties on tumour cell lines; type: cell-based; conditions: B16F10 cells, growth checked after day 6, read-out: IC50 of the cytotoxic action on tumour cell lines, B16F10
Protocol: (§1) A: Growth Inhibition Test for the Determination of the Cytotoxic Properties on Various Tumour Cell Lines
(§2) The human large intestine cell lines SW 480 and HT29 (ATCC No. CCL 228 and HTB38 and the mouse melanoma cell line B16F10 (CRL 6475) were grown to confluence in Roux dishes in RPMI 1640 medium with addition of 10% FCS. They were then trypsinized and taken up in RPMI plus 10% FCS to a cell count of 50,000 cells or, for B16F10, 20,000 cells per ml. 100 μl of cell suspension/well were added to a 96 microwell plate and incubated at 37° C. for 1 day in a CO2 incubator. A further 100 μl of RPMI medium and 1 μl of DMSO were then added with the test substances. The growth was checked after day 6. For this, 25 μl of MTT solution (3-(4,5-dimethylthiazol-2-yl)-2,5-diphenyltetrazolium bromide) was added to each well at a starting concentration of 5 mg/ml of H2O. The plate was incubated at 37° C. for 5 hours in a CO2 incubator. The medium was then aspirated and 100 μl of 1-propanol/well were added. After shaking with 100 μl of H2O for 30 min, the extinction was measured at 595 nm using a Multiplate Reader (BIO-RAD 3550-UV).
(§3) The cytostatic action is indicated in Table 1 as an IC50 value, in each case for the individual cell lines.

[4] = system: SW 480 human large intestine cell line; test: as above; type: cell-based; conditions: SW480 cells, growth checked after day 6, read-out: IC50 of the cytotoxic action on tumour cell lines, SW480
Protocol: as §1, §2, §3

[5] = system: HT29 human large intestine cell line; test: as above; type: cell-based; conditions: HT29 cells, growth checked after day 6, read-out: IC50 of the cytotoxic action on tumour cell lines, HT29
Protocol: as §1, §2, §3

MMP-2 = biological target: T1, MMP-2 (Homo sapiens, UniProt P08253); test: Cleavage of conjugates by MMP-2 in buffer; type: biochemical; conditions: after 6 h incubation with MMP-2 in buffer pH 7.5, HPLC peak areas
T1 construct: purchased Calbiochem
T1 sequence (P08253 110-660): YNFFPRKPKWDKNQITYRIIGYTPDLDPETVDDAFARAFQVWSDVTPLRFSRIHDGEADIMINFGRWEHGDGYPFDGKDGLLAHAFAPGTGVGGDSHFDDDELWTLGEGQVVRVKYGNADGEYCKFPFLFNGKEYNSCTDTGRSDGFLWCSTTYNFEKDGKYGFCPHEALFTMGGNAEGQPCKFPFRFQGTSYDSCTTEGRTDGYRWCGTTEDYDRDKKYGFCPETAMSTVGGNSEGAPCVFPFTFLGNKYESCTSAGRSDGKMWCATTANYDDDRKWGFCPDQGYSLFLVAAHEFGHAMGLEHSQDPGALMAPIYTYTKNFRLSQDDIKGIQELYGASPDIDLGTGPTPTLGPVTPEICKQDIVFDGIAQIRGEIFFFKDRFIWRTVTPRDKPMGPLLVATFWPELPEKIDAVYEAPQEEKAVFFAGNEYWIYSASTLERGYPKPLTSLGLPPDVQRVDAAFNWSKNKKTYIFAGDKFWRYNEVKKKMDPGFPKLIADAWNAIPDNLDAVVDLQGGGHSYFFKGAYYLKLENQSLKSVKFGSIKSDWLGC
Protocol: D. Cleavage of Conjugates by MMP-2 in Buffer
2.5 μl MMP-2 (Calbiochem) with a specific activity of 60μU/μl are incubated with 10 nM of the conjugates exemplified in the example series 1-25 in 1 ml of a medium consisting of 50 mM Tris-HCl pH 7.5, 0.2 M NaCl, 10 mM CaCl2*2H2O and 0,05% Brij 35. The enzyme mediated cleavage of the conjugates is detected by HPLC analysis using an RP18 (5 μM) column with 70% HClO4 /water (0.4% v/v) as eluent A and acetonitrile as eluent B (UV detection at […]). The efficiency of the cleavage is assessed by comparing the peak areas of the intact conjugate (starting material) and the cleavage product (tripeptide conjugate of camptothecin) after 6 h and 24 h incubation (cf, Table 4).

SMILES	IC50 ([1]; Mus musculus, Bone marrow cell, 168 h, read-out: IC50 of inhibition of colony counts of hemopoietic stem cells)	optimal T/C in % ([2]; 8 mg/kg/day)	lethality ([2]; 8 mg/kg/day)	IC50 [3]	IC50 [4]	IC50 [5]	MMP-2 mediated cleavage, peak area product/educt × 100 (MMP-2)	IC50 of inhibition of colony counts of hemopoietic stem cells [1]	inhibition of the tumor growth (in words) [2]	optimal T/C in % ([2]; 6 mg/kg/day)	lethality ([2]; 6 mg/kg/day)
CC[C@@]1(O)C(=O)OCc2c1cc1n(c2=O)Cc2cc3ccccc3nc2-1 [Camptothecin, 20(S)-Camptothecin, reference compound]	0.25 ng/mL	–	–	–	–	–	–	–	–	–	–
CC[C@@]1(OC(=O)[C@H](NC(=O)[C@@H](Cc2c[nH]cn2)NC(=O)[C@@H](CC(C)C)NC(=O)CNC(=O)[C@H](CC(C)C)NC(=O)[C@H]2CCCN2C(=S)Nc2ccc(OC3O[C@H](C)[C@H](O)[C@H](OC)[C@@H]3O)cc2)C(C)C)C(=O)OCc2c1cc1n(c2=O)Cc2cc3ccccc3nc2-1.Cl (stereo partly drawn) [Example 3] (X1-[dP]LG[dL][dH][dV]-X2)	–	19.1%	1/5	150 nM	100 nM	50 nM	609	40 ng/mL	–	–	–
CC[C@@]1(OC(=O)[C@H](NC(=O)[C@@H](Cc2c[nH]cn2)NC(=O)[C@@H](CC(C)C)NC(=O)CNC(=O)[C@H](CC(C)C)NC(=O)[C@H]2CCCN2C(=S)Nc2ccc(OC3O[C@H](C)[C@H](O)[C@H](OC)[C@@H]3O)cc2)C(C)C)C(=O)OCc2c1cc1n(c2=O)Cc2cc3ccccc3nc2-1.Cl (stereo partly drawn) [Example 12] (X1-[dP]LG[dL][dH][dV]-X2)	–	–	–	300 nM	150 nM	100 nM	–	30 ng/mL	–	–	–
CC[C@@]1(OC(=O)[C@H](NC(=O)[C@@H](Cc2c[nH]cn2)NC(=O)[C@@H](CC(C)C)NC(=O)CNC(=O)[C@H](CC(C)C)NC(=O)[C@H]2CCCN2C(=O)Nc2ccc(OC3O[C@H](C)[C@H](O)[C@H](OC)[C@@H]3O)cc2)C(C)C)C(=O)OCc2c1cc1n(c2=O)Cc2cc3ccccc3nc2-1.Cl (stereo partly drawn) [Example 4] ({X3-CO}-[dP]LG[dL][dH][dV]-X2)	–	–	–	150 nM	50 nM	40 nM	700	–	–	–	–
CC[C@@]1(OC(=O)[C@H](NC(=O)[C@@H](CC(=O)O)NC(=O)[C@@H](CC(C)C)NC(=O)CNC(=O)[C@H](CC(C)C)NC(=O)[C@H]2CCCN2C(=S)Nc2ccc(OC3O[C@H](C)[C@H](O)[C@H](OC)[C@@H]3O)cc2)C(C)C)C(=O)OCc2c1cc1n(c2=O)Cc2cc3ccccc3nc2-1 (stereo partly drawn) [Example 7] (X1-[dP]LG[dL][dD][dV]-X2)	–	–	–	600 nM	200 nM	100 nM	9	–	–	–	–
CC[C@@]1(OC(=O)[C@H](NC(=O)[C@@H](Cc2c[nH]c3ccccc23)NC(=O)[C@@H](CC(C)C)NC(=O)CNC(=O)[C@H](CC(C)C)NC(=O)[C@H]2CCCN2C(=S)Nc2ccc(OC3O[C@H](C)[C@H](O)[C@H](OC)[C@@H]3O)cc2)C(C)C)C(=O)OCc2c1cc1n(c2=O)Cc2cc3ccccc3nc2-1 (stereo partly drawn) [Example 9] (X1-[dP]LG[dL][dW][dV]-X2)	–	–	–	1000 nM	400 nM	300 nM	64	–	–	–	–
CC[C@@]1(OC(=O)[C@H](NC(=O)[C@@H](CC(N)=O)NC(=O)[C@@H](CC(C)C)NC(=O)CNC(=O)[C@H](CC(C)C)NC(=O)[C@H]2CCCN2C(=O)Nc2ccc(OC3O[C@H](C)[C@H](O)[C@H](OC)[C@@H]3O)cc2)C(C)C)C(=O)OCc2c1cc1n(c2=O)Cc2cc3ccccc3nc2-1 (stereo partly drawn) [Example 6] ({X3-CO}-[dP]LG[dL][dN][dV]-X2)	–	–	–	300 nM	60 nM	50 nM	80	–	–	–	–
CC[C@@]1(OC(=O)[C@H](NC(=O)[C@@H](Cc2c[nH]cn2)NC(=O)CNC(=O)[C@H](CC(C)C)NC(=O)[C@H]2CCCN2C(=S)Nc2ccc(OC3O[C@H](C)[C@H](O)[C@H](OC)[C@@H]3O)cc2)C(C)C)C(=O)OCc2c1cc1n(c2=O)Cc2cc3ccccc3nc2-1.Cl (some centres unmarked) [Example 2]	–	–	–	–	150 nM	70 nM	–	–	effected inhibitions of the tumor growth	–	–
CCC(C)[C@H](NC(=O)[C@H](CC(C)C)NC(=O)CNC(=O)[C@H](CC(C)C)NC(=O)[C@@H]1CCCN1C(=S)Nc1ccc(O[C@H]2O[C@@H](C)[C@@H](O)[C@@H](OC)[C@@H]2O)cc1)C(=O)N[C@H](C(=O)O[C@]1(CC)C(=O)OCc2c1cc1n(c2=O)Cc2cc3ccccc3nc2-1)C(C)C (some centres unmarked) [Example 18] (X4-PLGL[Ile(3ξ)]V-X2)	–	–	–	600 nM	100 nM	200 nM	–	–	–	–	–
CC[C@@]1(OC(=O)[C@H](NC(=O)[C@@H](CC(N)=O)NC(=O)[C@@H](CC(C)C)NC(=O)CNC(=O)[C@H](CC(C)C)NC(=O)[C@H]2CCCN2C(=S)Nc2ccc(OC3O[C@H](C)[C@H](O)[C@H](OC)[C@@H]3O)cc2)C(C)C)C(=O)OCc2c1cc1n(c2=O)Cc2cc3ccccc3nc2-1 (stereo partly drawn) [Example 5] (X1-[dP]LG[dL][dN][dV]-X2)	–	–	–	300 nM	80 nM	60 nM	166	–	effected inhibitions of the tumor growth	19.1%	1/5

Source: patent US20020173452A1, “Cytostatic-glycoconjugates having specifically cleavable linking units” (priority 2000, published 2002)
